Source: patent US20190086391A1, “METHOD AND SYSTEM FOR CONTINUOUS BIOSENSING” (Yissum Research Development Company of the Hebrew …, priority 2016, published 2019)
“Also recorded” adds a separate entry of the source.

Tested on: isolated mitochondria
Assay: Oxygen consumption rate of ADP-stimulated isolated mitochondria
Type: biochemical
Conditions: 50 μM injected after ADP; no enzymatic activation
Method: Mitochondria were isolated using a Mitochondria Isolation Kit (Abcam, UK) per manufacturer instructions. Briefly, 10^7 cells were collected and ruptured using 30 strokes in a pre-cooled dounce homogenizer. Homogenate was centrifuged twice at 1,000×g for 10 minutes at 4° C. to remove debris, and finally at 12,000×g for 15 minutes at 4° C. Pellet containing the isolated mitochondria was resuspended in a protease inhibitor cocktail. Protein concentration was determined using Bradford. 20 μg of mitochondrial protein per well was plated in gelatin-coated SeaHorse XFp cell culture miniplate and centrifuged at 3,000×g for 20 minutes at 4° C. in mitochondrial assay solution (MAS) as previously described (29). Oxygen consumption rate (OCR) was measured by the XFp Extracellular Flux Analyzer (Seahorse Biosciences, USA). Mitochondrial activity was profiled by successive injections of ADP (Sigma-Aldrich, Israel) and 50 μM of troglitazone, rotenone or DMSO control.

Q: For `C=C(C)[C@H]1Cc2c(ccc3c2O[C@@H]2COc4cc(OC)c(OC)cc4[C@@H]2C3=O)O1` [rotenone], which “loss of OCR / inhibition of mitochondrial respiration in isolated mitochondria” value is on record?
A: immediate; also recorded: directly inhibit mitochondrial respiration in minutes
